From BindingDB's records for patent US11066409 (Shionogi, 2021)

These compounds were tested against T1, P2X purinoceptor 7 [R270H] (Homo sapiens, UniProt Q99572, R270H) (assay: Inhibition Assay).
T1 construct: gene P2RX7
Procedure: Evaluation of a human P2X7 receptor inhibitory activity Stably expressing cell line (1321N1 cell transfected with the human P2X7 receptor gene (GenBank accession number NM_002562.5 including T606C and G952A SNP)) was used. The cells were seeded in a 384-well microtiter plate at a concentration of 8000 cells/well and cultured in the medium (10% fetal bovine serum, 25 mM HEPES, 1% penicillin and streptomycin in DMEM) for one day at 37° C. under 5% carbon dioxide atmosphere. After replacing with 20 μL of the HBSS buffer (20 mM HEPES, 55.6 mM D-glucose, 1× HBSS(−), pH7.4-7.5), 15 μL of 17.3 μM Yo-Pro solution in the HBSS buffer was added. The plate was placed in high-throughput cellular screening system FLIPR TETRA (Molecullar Devices, LLC.) and 15 μL of 130 μM BzATP solution in the HBSS buffer was added. Measurement of fluorescence intensity by FLIPR TETRA was started. After eight minutes, 15 μL of DMSO solutions containing different concentrations of the compound of the present invention as prepared by dilution with the HBSS buffer were dispensed to each well through the built-in automatic dispenser, and the measurement of fluorescence intensity was continued for 20 minutes. The maximum fluorescence intensity without the compound of the present invention is calculated as 0% inhibition and the maximum fluorescence intensity when the reference compound was added is calculated as 100% inhibition.

T1 sequence (Q99572 whole entry R270H, looked up): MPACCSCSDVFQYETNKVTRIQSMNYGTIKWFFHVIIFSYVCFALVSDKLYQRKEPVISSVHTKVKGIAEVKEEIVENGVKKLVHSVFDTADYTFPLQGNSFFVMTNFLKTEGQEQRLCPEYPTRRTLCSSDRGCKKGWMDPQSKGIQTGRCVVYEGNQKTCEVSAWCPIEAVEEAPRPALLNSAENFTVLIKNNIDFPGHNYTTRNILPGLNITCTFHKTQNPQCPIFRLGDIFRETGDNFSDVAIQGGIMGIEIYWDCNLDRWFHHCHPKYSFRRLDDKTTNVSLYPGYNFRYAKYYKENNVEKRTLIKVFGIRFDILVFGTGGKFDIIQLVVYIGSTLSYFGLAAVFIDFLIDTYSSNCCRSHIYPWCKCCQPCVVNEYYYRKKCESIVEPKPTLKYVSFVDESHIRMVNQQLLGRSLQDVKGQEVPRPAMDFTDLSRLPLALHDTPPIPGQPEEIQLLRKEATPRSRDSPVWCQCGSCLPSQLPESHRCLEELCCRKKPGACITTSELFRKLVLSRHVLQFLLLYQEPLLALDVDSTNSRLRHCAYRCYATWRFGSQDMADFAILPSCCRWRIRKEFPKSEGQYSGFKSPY

SMILES	IC50 [nM]
COc1cc(Nc2nc(=O)c(F)c3n2C(c2cc(F)cc(F)c2)CC3)c(C)cc1F (stereo not drawn) [US11066409, Compound I-0099]	< 10
Cc1cc(F)c(CO)cc1NC1=NC(=O)N(C)C2=NCC(c3cc(F)c(F)c(F)c3)N12 (stereo not drawn) [US11066409, Compound I-0168]	23
Cc1ccc(OCCO)cc1NC1=NC(=O)N(C)C2=NCC(c3cc(F)c(F)c(F)c3)N12 (stereo not drawn) [US11066409, Compound I-0171]	19
